Data on one molecule can be found in ChEMBL document CHEMBL5375956, “Discovery of Pyrazolo[1,5-a]pyrimidine Derivative as a Novel and Selective ALKBH5 Inhibitor for the Treatment of AML” (J Med Chem, 2023).

Broadly, the Kd is the constant that tells how readily two partners part at equilibrium. Broadly, the IC50 is the concentration at which inhibition is half-maximal. In general, AUC(0-inf) refers to the area under the concentration-time curve extrapolated to infinity. High values mean more exposure, low ones less exposure.

Active and inactive are the calls of the source. The rule behind the calls is not given here.

Data set [1] deals with RNA demethylase ALKBH5 (Homo sapiens, UniProt Q6P6C2, R277A/Y139A). In words: Binding affinity to NT-647-NHS fluorescent dye-labeled ALKBH5 Y139A/R277A mutant (unknown origin) expressed in Escherichia coli BL21(DE3) using m6A-ssDNA as substrate assessed as dissociation constant incubated for 15 mins by MST assay.
RNA demethylase ALKBH5 (Homo sapiens, UniProt Q6P6C2, R277A/Y139A), sequence (Q6P6C2 2-394 Y139A/R277A limits assumed): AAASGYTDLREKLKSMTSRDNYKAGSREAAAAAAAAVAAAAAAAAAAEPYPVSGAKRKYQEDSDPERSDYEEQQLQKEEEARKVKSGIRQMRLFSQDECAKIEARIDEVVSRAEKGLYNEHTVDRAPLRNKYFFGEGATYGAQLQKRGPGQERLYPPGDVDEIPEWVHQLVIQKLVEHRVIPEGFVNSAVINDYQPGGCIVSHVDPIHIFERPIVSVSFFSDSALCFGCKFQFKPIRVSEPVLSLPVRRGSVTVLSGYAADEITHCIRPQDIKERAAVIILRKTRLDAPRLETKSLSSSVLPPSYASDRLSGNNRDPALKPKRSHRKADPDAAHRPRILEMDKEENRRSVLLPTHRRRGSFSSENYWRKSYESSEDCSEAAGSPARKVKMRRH
The target of data set [2] is RNA demethylase ALKBH5 (Homo sapiens, UniProt Q6P6C2). In words: Inhibition of ALKBH5 in human MOLM-13 cells assessed as increase in m6A mRNA methylation level at 20 uM incubated for 48 hrs by LC-MS/MS analysis. The class given is cell-based.
RNA demethylase ALKBH5 (Homo sapiens, UniProt Q6P6C2), sequence (Q6P6C2 2-394 limits assumed): as the sequence (Q6P6C2 2-394 Y139A/R277A limits assumed) above, with A138Y, A276R counted along it
The test system of a further data set is MV4-11. In words: Antiproliferative activity against human MV4-11 cells assessed as inhibition of cell proliferation incubated for 72 hrs by Cell Titer Luminescence assay. Format: functional, cell-based. Particulars: MV4-11, 72 h.
The test system of the next data set is MOLM-13. In words: Downregulation of TACC3 level in human MOLM-13 cells upto 10 uM incubated for 48 hrs by Western blot analysis. The class given is functional, cell-based. A general note: Immunoblotting shows a protein as a band on a membrane.
The subject of a further data set is HEK293. In words: Effect on c-Myc mRNA level in HEK293 cells at 5 to 10 uM incubated for 48 hrs by qRT-PCR analysis. Format: functional, cell-based. Particulars: Homo sapiens, dose 5-10 µM.
A short description of data set [3]: AUC (0 to infinity) in Sprague-Dawley rat at 10 mg/kg, po measured for 1 to 1440 mins by LC-MS/MS analysis. The class given is ADME, organism-based. As to conditions: in vivo.

For `O=C(OCc1ccc(C(F)(F)F)cc1)c1ccc(-c2cc3ncc(C(=O)c4c(O)ccc([N+](=O)[O-])c4O)cn3n2)cc1`, the Kd at RNA demethylase ALKBH5 [1] amounted to 15.8 µM. At RNA demethylase ALKBH5 [2], the inhibition entry was “Active”. The IC50 with MV4-11 was 1.2 µM. Besides, the result in the data set on MOLM-13 was Active. The outcome with HEK293 was inactive. Moreover, the AUC(0-inf) in data set [3] is 5820 ng·h/mL.
